What was measured:
[1] = test system: Streptomyces scabies IFO3111; assay: Metabolism of compound (II) by a microorganism; type: in vitro ADME; details: compound (II) at 100 ppm, 7 to 8 days at 30° C.
Procedure: (§1) The HPLC for content analysis in Examples 1, 41 and 42 and fraction purification of the compound was conducted under the conditions shown below.
(§2) The various microorganisms shown in Tables 1 and 2 were grown in ISP2 agar medium (1.0% (w/v) malt extract, 0.4% (w/v) yeast extract, 0.4% (w/v) glucose, 2.0% (w/v) agar, pH 7.3). A “loopful” of the each microorganism was added to TGY medium (0.5% (w/v) tryptone, 0.5% (w/v) yeast extract, 0.1% (w/v) glucose, 0.01% (w/v) KH2PO4, pH 7.0) and incubated with shaking at 30° C. for 2 to 4 days. One-tenth milliliter (0.1 ml) of the obtained culture was incubated with shaking in 3 ml of sporulation medium (0.1% (w/v) of meat extract, 0.2% (w/v) tryptose, 1% glucose, pH 7.1) containing compound (II) at 100 ppm for 7 to 8 days at 30° C. Fifty microliters (50 μl) of 2N HCl was added to the resulting culture and this was extracted with 3 ml of ethyl acetate. The obtained ethyl acetate layer was analyzed on the HPLC. The concentration of compound (II) was reduced (column retention time of 23.9 minutes) and new peaks were detected for compounds at retention times of 21.6 minutes and 22.2 minutes (each referred to as metabolite (I) and metabolite (II)).

[2] = test system: Streptomyces phaeochromogenes IFO12898; assay: Metabolism of compound (II) by a microorganism; type: in vitro ADME; details: compound (II) at 100 ppm, 7 to 8 days at 30° C.
Procedure: as §1, §2

[3] = test system: Streptomyces griseus ATCC11429; assay: Metabolism of compound (II) by a microorganism; type: in vitro ADME; details: compound (II) at 100 ppm, 7 to 8 days at 30° C.
Procedure: as §1, §2

[4] = test system: Streptomyces rimosus ATCC10970; assay: Metabolism of compound (II) by a microorganism; type: in vitro ADME; details: compound (II) at 100 ppm, 7 to 8 days at 30° C.
Procedure: as §1, §2

[5] = test system: Streptomyces griseochromogenes ATCC14511; assay: Metabolism of compound (II) by a microorganism; type: in vitro ADME; details: compound (II) at 100 ppm, 7 to 8 days at 30° C.
Procedure: as §1, §2

[6] = test system: Streptomyces argenteolus var. toyon ATCC21468t; assay: Metabolism of compound (II) by a microorganism; type: in vitro ADME; details: compound (II) at 100 ppm, 7 to 8 days at 30° C.
Procedure: as §1, §2

[7] = test system: Streptomyces hachijoensis IFO12782; assay: Metabolism of compound (II) by a microorganism; type: in vitro ADME; details: compound (II) at 100 ppm, 7 to 8 days at 30° C.
Procedure: as §1, §2

[8] = test system: Streptomyces roseochromogenes ATCC13400t; assay: Metabolism of compound (II) by a microorganism; type: in vitro ADME; details: compound (II) at 100 ppm, 7 to 8 days at 30° C.
Procedure: as §1, §2

[9] = test system: Streptomyces cacaoiasoensis IFO13813; assay: Metabolism of compound (II) by a microorganism; type: in vitro ADME; details: compound (II) at 100 ppm, 7 to 8 days at 30° C.
Procedure: as §1, §2

[10] = test system: Streptomyces griseus ATCC10137; assay: Metabolism of compound (II) by a microorganism; type: in vitro ADME; details: compound (II) at 100 ppm, 7 to 8 days at 30° C.
Procedure: as §1, §2

[11] = test system: Streptomyces griseolus ATCC11796; assay: Metabolism of compound (II) by a microorganism; type: in vitro ADME; details: compound (II) at 100 ppm, 7 to 8 days at 30° C.
Procedure: as §1, §2

[12] = test system: Streptomyces kasugaensis IFO13851; assay: Metabolism of compound (II) by a microorganism; type: in vitro ADME; details: compound (II) at 100 ppm, 7 to 8 days at 30° C.
Procedure: as §1, §2

[13] = test system: Streptomyces catenulae IFO12848; assay: Metabolism of compound (II) by a microorganism; type: in vitro ADME; details: compound (II) at 100 ppm, 7 to 8 days at 30° C.
Procedure: as §1, §2

[14] = test system: Streptomyces roseochromogenus ATCC21895; assay: Metabolism of compound (II) by a microorganism; type: in vitro ADME; details: compound (II) at 100 ppm, 7 to 8 days at 30° C.
Procedure: as §1, §2

[15] = test system: Streptomyces thermocoerulescens IFO14273t; assay: Metabolism of compound (II) by a microorganism; type: in vitro ADME; details: compound (II) at 100 ppm, 7 to 8 days at 30° C.
Procedure: as §1, §2

[16] = test system: Streptomyces sp. SANK62585; assay: Metabolism of compound (II) by a microorganism; type: in vitro ADME; details: compound (II) at 100 ppm, 7 to 8 days at 30° C.
Procedure: as §1, §2

[17] = test system: Streptomyces griseus IFO3102; assay: Metabolism of compound (II) by a microorganism; type: in vitro ADME; details: compound (II) at 100 ppm, 7 to 8 days at 30° C.
Procedure: as §1, §2

[18] = test system: Streptomyces griseus ATCC15395; assay: Metabolism of compound (II) by a microorganism; type: in vitro ADME; details: compound (II) at 100 ppm, 7 to 8 days at 30° C.
Procedure: as §1, §2

[19] = test system: Streptomyces fimicarius ATCC21900; assay: Metabolism of compound (II) by a microorganism; type: in vitro ADME; details: compound (II) at 100 ppm, 7 to 8 days at 30° C.
Procedure: as §1, §2

[20] = test system: Streptomyces erythreus ATCC11635; assay: Metabolism of compound (II) by a microorganism; type: in vitro ADME; details: compound (II) at 100 ppm, 7 to 8 days at 30° C.
Procedure: as §1, §2

[21] = test system: Streptomyces afghaniensis IFO12831; assay: Metabolism of compound (II) by a microorganism; type: in vitro ADME; details: compound (II) at 100 ppm, 7 to 8 days at 30° C.
Procedure: as §1, §2

[22] = test system: Streptomyces ornatus IFO13069t; assay: Metabolism of compound (II) by a microorganism; type: in vitro ADME; details: compound (II) at 100 ppm, 7 to 8 days at 30° C.
Procedure: as §1, §2

[23] = test system: Streptomyces achromogenes IFO12735; assay: Metabolism of compound (II) by a microorganism; type: in vitro ADME; details: compound (II) at 100 ppm, 7 to 8 days at 30° C.
Procedure: as §1, §2

[24] = test system: Saccharopolyspora taberi JCM9383T; assay: Metabolism of compound (II) by a microorganism; type: in vitro ADME; details: compound (II) at 100 ppm, 7 to 8 days at 30° C.
Procedure: as §1, §2

[25] = test system: Streptomyces roseochromogenes ATCC13400; assay: Metabolism of compound (II) by a microorganism; type: in vitro ADME; details: compound (II) at 100 ppm, 7 to 8 days at 30° C.
Procedure: as §1, §2

[26] = test system: present invention protein (A16); assay: Detection of the ability to convert compound (II) to compound (III), E. coli pKSN452F extract; type: in vitro ADME, Streptomyces ornatus IFO 13069t; details: 3 ppm of compound (II) labeled with 14C, components A, B, 10 minutes at 30° C.
Procedure: Reaction solutions of 30 μl were prepared and maintained for 10 minutes at 30° C. The reaction solutions consisted of a 0.1M potassium phosphate buffer (pH7.0) containing 3 ppm of compound (II) labeled with ^14C, 2 mM of β-NADPH (hereinafter, referred to as “component A”) (Oriental Yeast Company), 2 mg/ml of a ferredoxin derived from spinach (hereinafter referred to as “component B”) (Sigma Company), 0.1 U/ml of ferredoxin reductase (hereinafter, referred to as “component C”) (Sigma Company) and 23 μl of the supernatant fraction recovered in Example 32(2). Similarly to Example 4(3), the reaction solutions after the maintenance were extracted with ethyl acetate and the extracted layers were TLC analyzed. […] A spot corresponding to compound (III) was detected from the reaction solution containing E. coli pKSN849AF extract. In contrast, such a spot was not detected from the reaction solution containing E. coli pKSN2 extract.
Similarly to Example 32(3), reaction solutions of 30 μl were prepared and maintained for 10 minutes at 30° C. […] The reaction solutions after the maintenance were extracted with ethyl acetate and the extracted layers were TLC analyzed. […] A spot corresponding to compound (III) was detected from the reaction solution containing E. coli pKSN452F extract. In contrast, such a spot was not detected from the reaction solution containing E. coli pKSN2 extract.

SMILES: C[C@@H](Oc1cc(-n2c(=O)cc(C(F)(F)F)n(C)c2=O)c(F)cc1Cl)C(=O)O [compound (II)]
- concentration of compound (II) [1]: 88.3 ppm
- concentration of compound (II) [2]: 46.4 ppm
- concentration of compound (II) [3]: 30.3 ppm
- concentration of compound (II) [4]: 70.9 ppm
- concentration of compound (II) [5]: 53.9 ppm
- concentration of compound (II) [6]: 90.1 ppm
- concentration of compound (II) [7]: 83.9 ppm
- concentration of compound (II) [8]: 71.8 ppm
- concentration of compound (II) [9]: 77.8 ppm
- concentration of compound (II) [10]: 65.6 ppm
- concentration of compound (II) [11]: 0 ppm
- concentration of compound (II) [12]: 66.3 ppm
- concentration of compound (II) [13]: 85.3 ppm
- concentration of compound (II) [14]: 74.2 ppm
- concentration of compound (II) [15]: 51.7 ppm
- concentration of compound (II) [16]: 54.6 ppm
- concentration of compound (II) [17]: 22.6 ppm
- concentration of compound (II) [18]: 75.2 ppm
- concentration of compound (II) [19]: 46.5 ppm
- concentration of compound (II) [20]: 54.6 ppm
- concentration of compound (II) [21]: 80.6 ppm
- concentration of compound (II) [22]: 65.3 ppm
- concentration of compound (II) [23]: 0.0 ppm
- concentration of compound (II) [24]: 82.9 ppm
- concentration of compound (II) [25]: 81.9 ppm
- spot corresponding to compound (III) labeled with 14C (TLC) [26]: detected
